Tests used:
[1] = Viscosity of the solution; assay type: physicochemical; conditions: at a concentration of […]
[2] = solvent not stated

maximum concentration dissolved, after which solid precipitated from the solution [2] [M]	Compound	viscosity [1] [cP]
–	N-(4-ferrocenylbutanoyl)-L-glutamate	3.7
0.251	O=C(O)CCC[c-]1cccc1.[Fe+2].c1cc[cH-]c1 [4-ferrocene butyric acid]	–

— patent publication US20250163089A1, “Branched Molecules for Redox Flow Batteries” (XL Batteries, Inc., priority 2023, published 2025)
